Assay type in all cases: physicochemical
Data set [1] is described as follows: Hydrolysis of the dehydration analog. The conditions noted are these: for distribution of products (rel. % of loss; x±s; n=6): hydrolysis of the dehydration analog, 3 day, pH 5.5, 35° C.
Data set [2] can be described thus: Batch hydrolysis of suspensolide in aqueous buffers. As for the experimental part: Buffers at 25° C. were transferred (1 mL) to 9-mm amber crimp-top (Teflon®-sealed) 2-mL GC vials. Suspensolide in anhydrous acetonitrile or methanol (50 μL) was added to afford initial aqueous concentrations of 0.9 mM and the solution was rapidly mixed for 10 s on a vortex Genie® mixer. Aqueous samples (10 μL) were removed with a 25-μL syringe and combined with 2 μL ACN containing 6 μg (+)-sclareolide as an external standard for HPLC.
GC was used to quantify lactones at the conclusion of each experiment. Hexane (1 mL), containing […] of tetradecane as an internal standard, was added to the vials and extractable analytes were removed from the water by rapidly mixing for 2 min on a vortex Genie® mixer. Emulsions were broken with NaCl, after which the hexane layer was transferred to vials for analysis by GC. The remaining solution was concentrated to dryness via Speed Vac® and dissolved in a methanolic solution of diazomethane. Extraction with pentane and subsequently H2O (0.5 mL each) yielded methyl esters amenable to GC within the organic phase. Initial suspensolide concentrations were measured (quadruplicate) via analogous introduction into 1 mL hexane+internal standard.

The nature of data set [3]: 1H-NMR monitored hydrolysis of suspensolide. As to conditions: 36 μL acetonitrile-d3 + 4 μl D2O; 27° C. As for the experimental part: Experiments were performed in a 2.0 mm capillary at 27° C. using a Bruker Avance 500 Console, Magnex 11.75 T/54 mm Magnet, and a 2.5 mm TXI probe (non spun). Spectra (64 scans) were acquired with 2.5 acquisition time and processed with ½ Hz line broadening.
Results and Discussion: Pentane extracts of male salivary glands that were added to water (pH 5.5) and rapidly stirred for 5 min at 25° C. yielded products within both phases that matched those obtained from pentane extraction of crops and oral secretions (FIG. 5). ^1H-Nuclear Magnetic Resonance (NMR) spectroscopy was then employed to directly observe the hydrolysis; the original vinyl and methyl proton signals disappeared over 3 h after a 4 μL addition of D2O to suspensolide in 36 μL acetonitrile-d3 (FIG. 6). In comparison, the loss of suspensolide in batch hydrolysis studies occurred much more rapidly (<2 min) over pH 3-10.

Bounds are passed on as bounds.

“γ-hydroxy acid of epianastrephin [epianastrephin γ-hydroxy acid]”: the “distribution of products (rel. % of loss; x±s; n=6)” value in data set [1] worked out at 3.6±2.3%.
Still for that read-out and setting: the result for `C=CC1(C)CCCC2(C)OC(=O)CC12` (stereo not shown) [epianastrephin, reference compound] reads 1.7±1.2%.
Turning to `C=CC1(C)CCCC(C)=C1CC(=O)O` (stereo not shown) [dehydration analog, 2,6-dimethyl-6-vinyl-cyclohexeneacetic acid], in data set [1] (3 day time course, pH 5.5 and 35° C.), the loss on hydrolysis is listed as around 15%.
Regarding “γ-hydroxy acid of anastrephin [anastrephin γ-hydroxy acid]”, the “distribution of products (rel. % of loss; x±s; n=6)” value in data set [1] was found to be 38.6±5.1%.
The same measure, in the same setting: the figure for `C=CC1(C)CCCC2(C)OC(=O)CC12` (stereo not drawn) [“cis-fused” epianastrephin] is 1.1±0.5%; for `C=C[C@@]1(C)CCC[C@]2(C)OC(=O)C[C@@H]12` [anastrephin, reference compound] it is 17.3±4.2%.
Consider `C/C1=C/COC(=O)C/C=C(/C)CCC1` [suspensolide, (3E,8E)-suspensolide], for which the “level of 7a-epimer “cis-fused” equivalents among hydrolysis products” value in data set [2] (FIG. 4) was below 5%. For the same compound, in data set [2] (in 18OH2 at pH 5, FIG. 13), the “epianastrephin to anastrephin ratio of γ-hydroxy acids formed by hydrolysis” value is around 2.5. In addition, in data set [2] (over pH 3-10), the “time for loss of suspensolide in batch hydrolysis” value is listed as below 2 min. For the same compound, in data set [2] (pH 5-6 and 25° C.), the “time for hydrolysis to product distribution III>II>>IV>>>I” value is on record as below 2 min. Moreover, the “epianastrephin to anastrephin product ratio of hydrolysis” value in data set [2] (pathways II and III, FIG. 4) is on record as around 2.5. Moreover, the “time over which suspensolide was hydrolyzed (1H-NMR)” value in data set [3] was around 3 h.
On to `C=CC1(C)CCCC2(C)OC(=O)CC12` (stereo not drawn) [“cis-fused” anastrephin], for which the “distribution of products (rel. % of loss; x±s; n=6)” value in data set [1] turned out to be 5.8±4.2%.
